# Tested on: hepatocytes
# Assay: Seq-Well scRNA-Seq of hepatocytes after APAP overdose (signature scores, DEG vs untreated)
# Type: in vivo, mouse
# Conditions: APAP vs UT, composite DEG
smiles,measurement,value
"CC(=O)Nc1ccc(O)cc1 [APAP, acetaminophen]",Fam134b logFC,0.8936
same,Fam214a logFC,−0.2658
same,Fcgrt logFC,−0.2693
same,Fdps logFC,−0.2663
same,Fitm1 logFC,−0.3242
same,Fkbp4 logFC,−0.3534
same,Fmo5 logFC,0.2862
same,Fn1 logFC,0.6996
same,Fpgs logFC,−0.3494
same,Ftl1 logFC,1
same,Furin logFC,0.4056
same,Fus logFC,0.3393
same,Fxyd5 logFC,0.2743
same,G0s2 logFC,0.3465
same,G6pc logFC,−0.9601
same,Gabarap logFC,−0.4425
same,Gabarapl1 logFC,0.2607
same,Gadd45g logFC,−0.614
same,Gadd45gip1 logFC,−0.3041
same,Gc logFC,0.2598
same,Gcdh logFC,−0.3003
same,Gch1 logFC,−0.2825
same,Gcnt2 logFC,0.5375
same,Gfra1 logFC,0.3864
same,Ggnbp2 logFC,0.2726
same,Ghr logFC,−0.3648
same,Gjb1 logFC,−0.3166
same,Glo1 logFC,−0.4066
same,Gltscr2 logFC,0.2553
same,Glud1 logFC,0.451
same,Glyctk logFC,−0.2977
same,Gm2a logFC,0.3831
same,Gm2788 logFC,−0.2831
same,Gm4951 logFC,−0.3221
same,Gm6484 logFC,0.3043
same,Gm10800 logFC,0.5626
same,Gm10801 logFC,0.2659
same,Gm23935 logFC,1
same,Gm24245 logFC,0.5465
same,Gm24270 logFC,0.268
same,Gne logFC,−0.4251
same,Gnmt logFC,−0.4604
same,Golga4 logFC,0.3521
same,Gpam logFC,0.2504
same,Gpld1 logFC,0.3281
same,Grhpr logFC,−0.3531
same,Grlf1 logFC,0.295
same,Grn logFC,0.5408
same,Gsk3b logFC,0.4065
same,Gsta1 logFC,0.4076
same,Gsta3 logFC,−0.8063
same,Gstk1 logFC,−0.2828
same,Gstm4 logFC,−0.3809
same,Gstp1 logFC,−0.8558
same,Gstt3 logFC,0.3507
same,Gtpbp4 logFC,0.4822
same,Gyk logFC,0.4024
same,Gys2 logFC,0.2744
same,H6pd logFC,0.3437
same,Hadh logFC,0.2888
same,Hagh logFC,−0.674
same,Hamp logFC,−1.021
same,Hba-a1 logFC,0.735
same,Hba-a2 logFC,0.5535
same,Hbb-bt logFC,1.43
same,Hdac11 logFC,−0.3368
same,Hdlbp logFC,0.5651
same,Herpud1 logFC,0.5136
same,Hgd logFC,−0.7586
same,Hgfac logFC,0.2522
same,Hibch logFC,−0.3271
same,Hint1 logFC,−0.6739
same,Hipk3 logFC,0.3394
same,Hist1h1c logFC,−0.3009
same,Hmgcl logFC,0.4738
same,Hmgcr logFC,0.4167
same,Hmgcs1 logFC,−0.3491
same,Hnf4a logFC,0.8791
same,Hnrnpdl logFC,0.398
same,Hp logFC,0.4313
same,Hsd3b3 logFC,−0.7795
same,Hsd3b5 logFC,−1.07
same,Hsd3b7 logFC,−1.006
same,Hsd17b4 logFC,0.2532
same,Hsd17b10 logFC,−0.3772
same,Hsd17b13 logFC,0.6808
same,Hsp90ab1 logFC,0.3227
same,Hsp90b1 logFC,0.5342
same,Hspa5 logFC,0.6105
same,Hspa8 logFC,0.4204
same,Huwe1 logFC,0.3879
same,Hyou1 logFC,0.8465
same,Id3 logFC,−0.3511
same,Ide logFC,0.2517
same,Ifrd1 logFC,0.4904
same,Igf1 logFC,0.2958
same,Iigp1 logFC,0.7688
same,Il1b logFC,0.7429
same,Il1r1 logFC,1.245
same,Il4ra logFC,0.2574
same,Il6ra logFC,0.3044
same,Ildr2 logFC,0.2676
same,Insig2 logFC,0.67
same,Ipo5 logFC,0.2687
same,Iqgap1 logFC,0.4554
same,Iqgap2 logFC,0.2547
same,Ireb2 logFC,0.2657
same,Itih3 logFC,0.5462
same,Itih4 logFC,0.5251
same,Jhdm1d logFC,0.3041
same,Kdelr2 logFC,0.3977
same,Khk logFC,−0.4915
same,Kif1b logFC,0.3718
same,Kif5b logFC,0.5012
same,Kif21a logFC,0.4042
same,Klf3 logFC,0.2674
same,Klf6 logFC,0.7324
same,Klf9 logFC,0.2934
same,Kng1 logFC,0.2658
same,Krt8 logFC,1.196
same,Krt18 logFC,1.258
same,Lamp1 logFC,0.2683
same,Lap3 logFC,−0.3644
same,Larp4b logFC,0.3421
same,Lasp1 logFC,0.253
same,Lcat logFC,0.4361
same,Lcp1 logFC,0.484
same,Lgals9 logFC,−0.27
same,Lifr logFC,−0.6262
same,Lipa logFC,0.4183
same,Litaf logFC,0.3944
same,Lpgat1 logFC,0.5952
same,Lpin2 logFC,0.6867
same,Lrg1 logFC,0.4908
same,Lrrc58 logFC,1.001
same,Lrrfip2 logFC,0.3731
same,Lsmd1 logFC,−0.3131
same,Lyz2 logFC,0.7322
same,Macf1 logFC,0.4042
same,Magt1 logFC,0.2633
same,Man2a1 logFC,0.4971
same,Maob logFC,0.3204
same,Map3k5 logFC,0.3347
same,Mapk6 logFC,0.2568
same,Mat2a logFC,0.4826
same,Mbl2 logFC,−0.3465
same,Mbnl1 logFC,0.4513
same,Mcee logFC,−0.3199
same,Mcl1 logFC,0.5709
same,Mdh1 logFC,−0.3077
same,Mdm2 logFC,0.3283
same,Med13 logFC,0.2949
same,Met logFC,0.2883
same,Metap2 logFC,0.3686
same,Mettl7a1 logFC,−0.3221
same,Mettl7b logFC,−0.4527
same,Mettl20 logFC,−0.3314
same,Mgll logFC,0.3339
same,Mgst1 logFC,−1.06
same,Mia3 logFC,0.3646
same,Mien1 logFC,−0.3704
same,Mki67ip logFC,0.3184
same,Mlycd logFC,0.313
same,Mmp8 logFC,0.359
same,Mocs2 logFC,−0.3467
same,Mpeg1 logFC,0.4935
same,Mrap logFC,0.8841
same,Mrc1 logFC,0.3404
same,Mrp63 logFC,−0.4422
same,Mrpl12 logFC,−0.3082
same,Mrpl33 logFC,−0.2654
same,Mrps18c logFC,−0.3663
same,Mrps24 logFC,−0.3904
same,Mtdh logFC,0.3047
same,Mthfd2 logFC,0.2624
same,Mtss1 logFC,0.2876
same,Mttp logFC,0.3115
same,Mtus1 logFC,0.3621
same,Mup1 logFC,1
same,Mup4 logFC,−1.087
same,Mup8 logFC,−0.7958
same,Mup13 logFC,−0.7757
same,Mup14 logFC,−0.7608
same,Mup20 logFC,−0.4762
same,Mxd1 logFC,0.2978
same,Mybbp1a logFC,0.4312
same,Myh9 logFC,1.16
same,Myl12a logFC,0.3908
same,Nadk2 logFC,0.2579
same,Naprt1 logFC,−0.3381
same,Narf logFC,0.2629
same,Nars logFC,0.4378
same,Ncl logFC,0.4845
same,Ndufa1 logFC,−0.3645
same,Ndufa2 logFC,−0.3965
same,Ndufa3 logFC,−0.4116
same,Ndufa4 logFC,−0.6831
same,Ndufb3 logFC,−0.3272
same,Ndufb8 logFC,−0.3481
same,Ndufb10 logFC,−0.3004
same,Ndufc1 logFC,−0.3444
same,Ndufc2 logFC,−0.4253
